Earlier results on two molecules are cited in US20220288273A1, “OSTEOINDUCTIVE MODIFIED GELATIN HYDROGELS AND METHODS OF MAKING AND USING THE SAME” (THE REGENTS OF THE UNIVERSITY OF CALIFORNIA, priority 2019, published 2022).

Structures are written as SMILES.

As to `CC(C)(O)C(=O)c1ccc(OCCO)cc1` [Irgacure-2959, 2-Hydroxy-4′-(2-hydroxyethoxy)-2-methylpropiophenone], the water solubility entry is listed as “low water solubility”.
On to `Cc1cc(C)c(C(=O)P(=O)([O-])c2ccccc2)c(C)c1.[Li+]` [LAP, Lithium phenyl-2,4,6-trimethylbenzoylphosphinate], for which the water solubility result is on record as “high water solubility”.
